Results: patent US20090131302A1, “Transient receptor potential vanilloid 1 and uses thereof” (priority 2007, published 2009)

Assays:
[1] = test system: colon of P10 rats; conditions: 0.5% into colon at P10, vs saline
Experimental: To treat neonatal rats with capsaicin, ten day old rat pups received an infusion of 0.2 mls of 50 mg/ml capsaicin or 0.2 mls vehicle: 10% ethanol, 10% Tween 20, 80% saline or were left unmanipulated. Visceral sensitivity and inflammatory parameters were measured in these rats between 8 and 12 weeks of age. […] After 4 weeks, rats were tested for sensitivity to colorectal distention.
Visceral hypersensitivity was measured by grading the response of rats to colorectal distention as previously described.^11 Briefly, under mild sedation with 1% Brevital (Eli Lily & Co Indianapolis, Ind.) 25 mg/kg i.p.), a flexible balloon (5 cm) constructed from a surgical glove finger attached to a tygon tubing was inserted 8 cm into the descending colon and rectum via the anus and held in place by taping the tubing to the tail. […] Pressure was measured using a sphygmomanometer connected to a pressure transducer. […] Behavioral responses to colorectal distention were measured by visual observation of the abdominal withdrawal reflex by blinded observer and the assignment of an AWR score as follows: 1=Normal behavior without response 2=Contraction of abdominal muscles; 3=Lifting of abdominal wall; 4=Body arching and lifting of pelvic structures. […]
Data is expressed as mean+/−standard error of the mean (SE).

[2] = test system: colon; conditions: rat, in vivo
Experimental: Colons were divided into proximal, middle and distal segments; portions of each segment were placed in 10% buffered formalin and portions were frozen in liquid nitrogen. Haematoxilin & Eosin stained parafin sections were scored for inflammation by a pathologist as described.^21 Myeloperoxidase (MPO) assays were performed as described.^22 Protein was measured by the BCA method (Pierce, Rockford, Ill.). Activity was expressed as the change in absorbance/min/mg protein. Cytokine levels were measured in colon extracts using the Biorad Bioplex assay procedure and normalized to protein.
To rule out the possibility that the sensitizing effects of neonatal acetic acid exposure were due to inflammation/injury of the colon, the colons of P10 pups were examined.
To determine whether persistent hypersensitivity achieved in neonatal acetic acid treated rats was due to the development of a chronic colitis in adult, H&E stained sections of the colons of 8 weeks old adult rats were examined for histopathological signs of inflammation, myoloperoxidase (MPO) activity and inflammatory cytokine levels. […] Since mast cells can affect both motility and sensitivity, mast cells in proximal, middle and distal colon were counted.

[3] = test system: colon of adult rats; conditions: 1 ml of 5% into descending colon at 8 weeks; tested after 4 weeks; 50-80 mm Hg; vs saline
Experimental: For neonatal sensitization, rats were obtained as litters of 4 days old pups. […] To treat neonatal rats with capsaicin, ten day old rat pups received an infusion of 0.2 mls of 50 mg/ml capsaicin or 0.2 mls vehicle: 10% ethanol, 10% Tween 20, 80% saline or were left unmanipulated. Visceral sensitivity and inflammatory parameters were measured in these rats between 8 and 12 weeks of age. […] After 4 weeks, rats were tested for sensitivity to colorectal distention.
The abdominal withdrawal reflex represents a characteristic set of behaviors produced by involuntary motor reflexes that are activated by colorectal distention. Visceral hypersensitivity was measured by grading the response of rats to colorectal distention as previously described.^11 Briefly, under mild sedation with 1% Brevital (Eli Lily & Co Indianapolis, Ind.) 25 mg/kg i.p.), a flexible balloon (5 cm) constructed from a surgical glove finger attached to a tygon tubing was inserted 8 cm into the descending colon and rectum via the anus and held in place by taping the tubing to the tail. Rats were placed in small Lucite cubicles (20×8×8 cm) (Bioengineering Department, UTMB) and were allowed to adapt for 30 minutes. CRD was performed by rapidly inflating the balloon to constant pressure. Pressure was measured using a sphygmomanometer connected to a pressure transducer. […]

[4] = test system: MAPK; conditions: pups one hour after infusion
Experimental: To determine whether acetic acid infusion of the colons of 10 days old pups activated MAPK in DRG containing soma of colon afferents, combined lumbar/sacral (LS) and thoracolumbar (TL) DRG from 4 pups/treatment group were assayed for p-p38 or ERK (p-p42/p-p44) content by western blot 1 hour after acetic acid infusion. Cervical (CE) DRG from the same animals were examined as an internal control for specificity of stimulation.

[5] = test system: colon DRG neurons
Experimental: To determine whether the sensitivity of colon DRG neurons was altered in eight weeks old rats in this model, action potential threshold (rheobase) and firing frequency of acutely dissociated lumbar/sacral (LS), and thoracolumbar (TL) colon DRG neurons, identified by the presence of the retrograde label DiI, were measured in current clamp experiments.

[6] = test system: TRPV1
Experimental: Tissues for western blot or RNA extraction were immediately frozen on dry ice and were stored at −80 until further analysis. Tissues were homogenized in extract buffer; 1% NP40, 10% glycerol, 20 mM Tris HCl […], 100 mM NaCl, 50 mM NaF, 2 mM EDTA, 1 mM EGTA, 25 mM b-glycerophosphate, 2 mM sodium pyrophosphate, 1 mM sodium orthovanadate, 1 mM phenylmethylsulfonyl fluoride and Protease Inhibitor Cocktail, 1/100 (Sigma). Proteins were resolved on 7.5% SDS-PAGE gels, transferred to PVDF membranes (BioRad), and incubated with an anti-TRPV1 antibody (PC420, Invitrogen) at 1/500. Bound antibodies were detected by ECL kit (Amersham Pharmacia Biotech, Piscataway, N.J.). The membranes were exposed to X-ray films and subsequently stripped and re-probed with a b-III-tubulin antibody (1/1000, Promega). Films were converted to TIFF image files using a HP scanner, and the TRPV1 and b-III-tubulin bands were quantified using OptiQuant software (Packard). Data was expressed as the ratio of TRPV1 to b-III-tubulin band intensity.
RNA was extracted from frozen DRG using Triozol (Invitrogen). Starting with […] of RNA, two-step quantitative RT-PCR was performed using Applied Biosystems reagents and kits. The following forward and reverse primer and probe sequences were used: TRPV1: […] (SEQ ID NO: 2), […] (SEQ ID NO: 3); b-III-tubulin: […] (SEQ ID NO: 4), […] (SEQ ID NO: 5), […] (SEQ ID NO: 6). TAQMAN PCR was performed on an Applied Biosystems 5700. Relative changes in TRPV1 mRNA levels were calculated by the DDCt method using b-III-tubulin as a normalizer. No RT reactions were performed as controls.
The lipid soluble fluorescent dye, DiI (1,1′-dioleyl-3,3,3′,3-tetramethylindocarbocyanine methanesulfonate, Invitrogen), 25 mg in 0.5 ml methanol, was injected in 2 μl volumes at 8-10 sites on the exposed colon from the level of the bladder to 6 cm oral. After one to two weeks, rats were perfused transcardially with 150 ml phosphate buffered saline (PBS) followed by 400 ml ice cold 4% paraformaldehyde in PBS. Dorsal root ganglia, T12 to S2 were removed and were post-fixed one hour in PFA and cryoprotected overnight in 20% sucrose in PBS. 10 micron sections on plus slides were incubated sequentially with TRPV1 antibody (PC420, Invitrogen, 1/200) and then with anti-rabbit Alexa Fluor 488 (Invitrogen, 1/200). Sections were viewed using a BX60 Olympus microscope equipped with filter cubes appropriate for DiI (Rhodamine filter) and appropriate band pass and barrier filter for Alexa-488. Images were captured and were analyzed using Metaview software. To ensure that a neuron is counted only once, serial sections were placed on consecutive slides with at least 50 microns between sections on the same slide.
To determine whether TRPV1 expression was altered in adult rats that were sensitized with acetic acid as neonates, TRPV1 expression in DRG containing colon afferents and in the spinal cord was measured.
TRPV1 and BDNF mRNA expression was measured in S1 DRG isolated from adult rats that were treated with acetic acid or saline as neonates by quantitative RT-PCR. […] To increase the sensitivity and specificity of this gene expression assay, measurements will be made in colon afferent neurons identified by uptake of the retrograde label fluorogold and isolated by laser capture microdissection (LCM) (FIG. 11).

[7] = adult rats sensitized as neonates vs controls
[8] = quantitative RT-PCR, vs P10 saline

For `CC(=O)O` [acetic acid], the “EMG activity in response to graded colorectal distention” value ([1]; adult, 40 and 60 mm Hg) was “significantly higher”, the “AWR scores in response to colorectal distention” value ([1]; tested at 8 weeks) was “higher mean AWR scores at all distention pressures” and the “IFN-g in proximal colon, relative to saline” value [2] was 1.5 fold. The “MPO activity in proximal, middle and distal colon” value [2] was “no significant increases in activity”, the “MPO values in colon of pups” value [2] was “not significantly different” and the “histology of colon of pups” value [2] was “No histological signs of inflammation or tissue destruction”. For the same compound, the “histopathological examination of adult colon” value [2] was “no evidence of inflammation or abnormalities in structure”, the “levels of pro-inflammatory cytokines (IL-1b, IL-1a, IL-2, IL-6, TNF-a, IFN-g)” value [2] was “no significant differences” and the “mast cell counts, distal colon” value [2] was 9.3 SE 4.1 number of mast cells per high-powered field. The “mast cell counts, middle colon” value [2] was 7.7 SE 1.2 number of mast cells per high-powered field, the “mast cell counts, proximal colon” value [2] was 6.3 SE 3.4 number of mast cells per high-powered field and the “AWR grades in response to colorectal distention” value [3] was “No significant differences”. The “p-p38 in TL or CE DRG” value [4] was “No large changes”, the “p-p42 in LS DRG” value [4] was “no change” and the “p-p44 in LS DRG” value [4] was “seven-fold increase”. For the same compound, the “p-ERK increase in TL DRG” value ([4]; also seen with saline) was 3-5 fold, the “p-p38 in LS DRG” value ([4]; vs saline and unmanipulated) was “three-fold increase” and the “average rheobase, TL colon DRG neurons” value ([5]; 8 weeks old rats treated at P10, control 0.47) was 0.29 nA. The “average rheobase, LS colon DRG neurons” value ([5]; 8 weeks old rats treated at P10, control 0.56) was 0.21 nA, the “number of action potentials elicited by current injection at 2x the rheobase, LS neurons” value ([5]; control 1.2) was 1.8 and the “TRPV1 protein expression in the spinal cord” value ([6]; adult rats sensitized as neonates) was “No change”. For the same compound, the “TRPV1 mRNA in TL DRG” value [6, 7] was “no change”, the “TRPV1 mRNA increase in LS DRG” value [6, 7] was 1.9 fold and the “TRPV1 protein expression in whole DRG extracts” value ([6]; both TL and LS DRG, adult rats sensitized as neonates) was “significantly increased”. The “colon DRG neurons (DiI) expressing TRPV1 immunoreactivity, LS DRG” value ([6]; control 38.8%) was 54.0%, the “colon DRG neurons (DiI) expressing TRPV1 immunoreactivity, TL DRG” value ([6]; control 40.6%) was 67.3% and the “BDNF mRNA expression increase in S1 DRG” value [6, 8] was 1.9 fold. For the same compound, the “TRPV1 mRNA expression increase in S1 DRG” value [6, 8] was 1.9 fold.
